Measurements reported in patent US11578061B2, “Inhibitors of LRRK2 kinase” (Halia Therapeutics, Inc., priority 2021, dated 2023).

target: recombinant human LRRK2 (catalytic domain only [amino acids 970-2527], GST-tagged) (Homo sapiens (Human), UniProt Q5S007); assay: LRRK2 Enzymatic Assay; format: biochemical; settings: LRRKtide substrate, [32P]-ATP
How it was run: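 Radiometric P81 filter-binding read-out of [32P]-ATP transfer to LRRKtide (20 μM) by 30 nM GST-LRRK2 970-2527, 2 h at room temperature after 20 min compound preincubation (10 μM–0.5 nM, 1% DMSO). IC50 derived from % remaining activity versus DMSO.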

Chain of recombinant human LRRK2 (catalytic domain only [amino acids 970-2527], GST-tagged) (Q5S007 970-2527): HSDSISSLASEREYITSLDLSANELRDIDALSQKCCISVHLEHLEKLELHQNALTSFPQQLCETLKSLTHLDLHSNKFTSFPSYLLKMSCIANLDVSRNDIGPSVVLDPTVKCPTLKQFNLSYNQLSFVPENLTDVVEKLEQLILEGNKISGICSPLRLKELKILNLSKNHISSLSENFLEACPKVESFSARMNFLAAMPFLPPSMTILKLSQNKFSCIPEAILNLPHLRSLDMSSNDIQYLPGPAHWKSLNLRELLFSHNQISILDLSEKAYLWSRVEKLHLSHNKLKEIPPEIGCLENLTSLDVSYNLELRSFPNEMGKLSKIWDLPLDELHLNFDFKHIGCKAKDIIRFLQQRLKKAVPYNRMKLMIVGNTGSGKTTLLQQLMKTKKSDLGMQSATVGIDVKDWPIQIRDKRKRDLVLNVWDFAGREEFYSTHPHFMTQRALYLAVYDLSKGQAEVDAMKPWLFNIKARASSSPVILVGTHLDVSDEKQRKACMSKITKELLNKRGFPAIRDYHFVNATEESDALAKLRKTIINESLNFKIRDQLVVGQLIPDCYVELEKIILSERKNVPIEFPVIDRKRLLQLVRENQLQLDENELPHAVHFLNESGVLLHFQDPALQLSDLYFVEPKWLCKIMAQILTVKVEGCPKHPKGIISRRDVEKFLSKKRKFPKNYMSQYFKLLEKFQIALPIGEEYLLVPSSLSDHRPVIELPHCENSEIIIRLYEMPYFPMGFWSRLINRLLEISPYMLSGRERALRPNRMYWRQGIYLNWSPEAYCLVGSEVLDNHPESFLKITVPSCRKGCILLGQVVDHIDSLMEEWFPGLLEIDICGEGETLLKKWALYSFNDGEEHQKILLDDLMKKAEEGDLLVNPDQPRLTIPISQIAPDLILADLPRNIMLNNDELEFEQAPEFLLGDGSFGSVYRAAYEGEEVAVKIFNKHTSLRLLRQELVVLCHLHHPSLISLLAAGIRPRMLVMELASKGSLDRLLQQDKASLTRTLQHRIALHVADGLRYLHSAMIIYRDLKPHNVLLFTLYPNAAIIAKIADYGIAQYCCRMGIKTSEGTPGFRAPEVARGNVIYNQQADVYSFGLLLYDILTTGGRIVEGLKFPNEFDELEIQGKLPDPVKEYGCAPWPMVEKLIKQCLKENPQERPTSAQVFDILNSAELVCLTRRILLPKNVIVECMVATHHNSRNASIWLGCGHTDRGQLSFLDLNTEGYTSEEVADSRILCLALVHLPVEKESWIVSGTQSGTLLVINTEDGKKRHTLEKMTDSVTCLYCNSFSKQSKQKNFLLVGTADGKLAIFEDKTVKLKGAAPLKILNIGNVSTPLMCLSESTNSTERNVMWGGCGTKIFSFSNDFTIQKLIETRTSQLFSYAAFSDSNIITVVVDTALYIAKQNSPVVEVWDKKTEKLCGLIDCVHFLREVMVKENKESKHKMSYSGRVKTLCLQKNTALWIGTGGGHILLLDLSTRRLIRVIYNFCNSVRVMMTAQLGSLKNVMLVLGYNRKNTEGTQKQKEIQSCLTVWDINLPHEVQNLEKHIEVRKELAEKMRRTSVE

IC50 | Compound
50 to 200 nM | CC(=O)N[C@H]1CC[C@H](COc2nc(Nc3cn(C(F)F)nc3C)ncc2F)CC1 [Example 197, N-((1R,4R)-4-(((2-((1-(difluoromethyl)-3-methyl-1H-pyrazol-4-yl)amino)-5-fluoropyrimidin-4-yl)oxy)methyl)cyclo-hexyl)acetamide]
< 50 nM | CCc1nn(C)cc1Nc1ncc(F)c(OC[C@H]2CC[C@H](NC(C)=O)CC2)n1 [Example 198, N-((1R,4R)-4-(((2-((3-ethyl-1-methyl-1H-pyrazol-4-yl)amino)-5-fluoropyrimidin-4-yl)oxy)methyl)cyclo-hexyl)acetamide]
< 50 nM | CC(=O)N[C@H]1CC[C@H](COc2nc(Nc3cnn(C(C)(C)C#N)c3C)ncc2F)CC1 [Example 199, N-((1R,4R)-4-(((2-((1-(2-cyanopropan-2-yl)-5-methyl-1H-pyrazol-4-yl)amino)-5-fluoropyrimidin-4-yl)oxy)methyl)cyclo-hexyl)acetamide]
< 50 nM | CC(=O)N[C@H]1CC[C@H](COc2nc(Nc3cnn(C(F)F)c3C)ncc2F)CC1 [Example 200, N-((1R,4R)-4-(((2-((1-(difluoromethyl)-5-methyl-1H-pyrazol-4-yl)amino)-5-fluoropyrimidin-4-yl)oxy)methyl)cyclo-hexyl)acetamide]
< 50 nM | CC(=O)N[C@H]1CC[C@H](COc2nc(Nc3cn(C)nc3Cl)ncc2F)CC1 [Example 201, N-((1R,4R)-4-(((2-((3-chloro-1-methyl-1H-pyrazol-4-yl)amino)-5-fIuoropyrimidin-4-yl)oxy)methyl)cyclo-hexyl)acetamide]
< 50 nM | CC(=O)N[C@H]1CC[C@H](COc2nc(Nc3cn(C(C)C)nc3Cl)ncc2F)CC1 [Example 202, N-((1R,4R)-4-(((2-((3-chloro-1-isopropyl-1H-pyrazol-4-yl)amino)-5-fluoropyrimidin-4-yl)oxy)methyl)cyclo-hexyl)acetamide]
< 50 nM | CC(=O)N[C@H]1CC[C@H](COc2nc(Nc3cn(C4CC4)nc3Cl)ncc2F)CC1 [Example 203, N-((1R,4R)-4-(((2-((3-chloro-1-cyclopropyl-1H-pyrazol-4-yl)amino)-5-fluoropyrimidin-4-yl)oxy)methyl)cyclo-hexyl)acetamide]
< 50 nM | CC(=O)N[C@H]1CC[C@H](COc2nc(Nc3cnn(CCO)c3Cl)ncc2F)CC1 [Example 204, N-((1R,4R)-4-(((2-((5-chloro-1-(2-hydroxyethyl)-1H-pyrazol-4-yl)amino)-5-fluoropyrimidin-4-yl)oxy)methyl)cyclo-hexyl)acetamide]
< 50 nM | COCCn1ncc(Nc2ncc(F)c(OC[C@H]3CC[C@H](NC(C)=O)CC3)n2)c1Cl [Example 205, N-((1R,4R)-4-(((2-((5-chloro-1-(2-methoxyethyl)-1H-pyrazol-4-yl)amino)-5-fluoropyrimidin-4-yl)oxy)methyl)cyclo-hexyl)acetamide]
< 50 nM | CC(=O)N[C@H]1CC[C@H](COc2nc(Nc3cnn(C4CCOCC4)c3Cl)ncc2F)CC1 [Example 206, N-((1R,4R)-4-(((2-((5-chloro-1-(tetrahydro-2H-pyran-4-yl)-1H-pyrazol-4-yl)amino)-5-fluoropyrimidin-4-yl)oxy)methyl)cyclo-hexyl)acetamide]
50 to 200 nM | COc1nn(C(C)C)cc1Nc1ncc(F)c(OC[C@H]2CC[C@H](NC(C)=O)CC2)n1 [Example 207, N-((1R,4R)-4-(((5-fluoro-2-((1-isopropyl-3-methoxy-1H-pyrazol-4-yl)amino)pyrimidin-4-yl)oxy)methyl)cyclo-hexyl)acetamide]
< 50 nM | COc1nn(C2CC2)cc1Nc1ncc(F)c(OC[C@H]2CC[C@H](NC(C)=O)CC2)n1 [Example 208, N-((1R,4R)-4-(((2-((1-cyclopropyl-3-methoxy-1H-pyrazol-4-yl)amino)-5-fluoropyrimidin-4-yl)oxy)methyl)cyclo-hexyl)acetamide]
< 50 nM | CC(C)n1cc(Nc2ncc(F)c(OC[C@H]3CC[C@H](NC(=O)C(F)(F)F)CC3)n2)cn1 [Example 210, 2,2,2-trifluoro-N-((1R,4R)-4-(((5-fluoro-2-((1-isopropyl-1H-pyrazol-4-yl)amino)pyrimidin-4-yl)oxy)methyl)cyclohexyl) acetamide]
< 50 nM | Cc1nn(C(C)C)cc1Nc1ncc(F)c(OC[C@H]2CC[C@H](NC(=O)C(F)(F)F)CC2)n1 [Example 211, 2,2,2-trifluoro-N-((1R,4R)-4-(((5-fluoro-2-((1-isopropyl-3-methyl-1H-pyrazol-4-yl)amino)pyrimidin-4-yl)oxy)methyl)cyclohexyl) acetamide]
50 to 200 nM | Cc1nn(C(C)(C)C#N)cc1Nc1ncc(F)c(OC[C@H]2CC[C@H](NC(=O)C(F)(F)F)CC2)n1 [Example 212, N-((1R,4R)-4-(((2-((1-(2-cyanopropan-2-yl)-3-methyl-1H-pyrazol-4-yl)amino)-5-fluoro-pyrimidin-4-yl)oxy)methyl)cyclohexyl)-2,2,2-trifluoro-acetamide]
< 50 nM | COc1nn(C(C)C)cc1Nc1ncc(F)c(OC[C@H]2CC[C@H](NC(=O)C(F)(F)F)CC2)n1 [Example 213, 2,2,2-trifluoro-N-((1R,4R)-4-(((5-fluoro-2-((1-isopropyl-3-methoxy-1H-pyrazol-4-yl)amino)pyrimidin-4-yl)oxy)methyl)cyclohexyl) acetamide]

IC50 | Compound
50 to 200 nM | COc1cc(C(=O)N2CCOCC2)c(F)cc1Nc1ncc(F)c(OC[C@H]2CC[C@H](O)CC2)n1 [Example 214, (2-fluoro-4-((5-fluoro-4-(((1R,4R)-4 hydroxycyclohexyl)methoxy)pyrimidin-2-yl)amino)-5-methoxyphenyl)(morpholino)methanone]
< 50 nM | O[C@H]1CC[C@H](COc2nc(Nc3ccc(N4CC5(CCOC5)C4)cc3)ncc2F)CC1 [Example 215, (1R,4R)-4-(((2-((4-(6-oxa-2-azaspiro[3.4]octan-2-yl)phenyl)amino)-5-fluoropyrimidin-4-yl)oxy)methyl)cyclohexan-1-ol]
< 50 nM | Cn1cc(Nc2ncc(F)c(OC[C@H]3CC[C@H](O)CC3)n2)cn1 [Example 216, (1R,4R)-4-(((5-fluoro-2-((1-methyl-1H-pyrazol-4-yl)amino)pyrimidin-4-yl)oxy)methyl)cyclohexan-1-ol]
50 to 200 nM | CCn1cc(Nc2ncc(F)c(OC[C@H]3CC[C@H](O)CC3)n2)cn1 [Example 217, (1R,4R)-4-(((2-((1-ethyl-1H-pyrazol-4-yl)amino)-5-fluoropyrimidin-4-yl)oxy)methyl)cyclohexan-1-ol]
50 to 200 nM | CC(C)n1cc(Nc2ncc(F)c(OC[C@H]3CC[C@H](O)CC3)n2)cn1 [Example 218, (1R,4R)-4-(((5-fluoro-2-((1-isopropyl-1H-pyrazol-4-yl)amino)pyrimidin-4-yl)oxy)methyl)cyclohexan-1-ol]
> 400 nM | CC(C)n1cc(Nc2ncc(F)c(OC[C@H]3CC[C@@H](O)CC3)n2)cn1 [Example 219, (1S,4S)-4-(((5-fluoro-2-((1-isopropyl-1H-pyrazol-4-yl)amino)pyrimidin-4-yl)oxy)methyl)cyclohexan-1-ol]
50 to 200 nM | O[C@H]1CC[C@H](COc2nc(Nc3cnn(C4CC4)c3)ncc2F)CC1 [Example 220, (1R,4R)-4-(((2-((1-cyclopropyl-1H-pyrazol-4-yl)amino)-5-fluoropyrimidin-4-yl)oxy)methyl)cyclohexan-1-ol]
50 to 200 nM | CC(C)(C#N)n1cc(Nc2ncc(F)c(OC[C@H]3CC[C@H](O)CC3)n2)cn1 [Example 221]
> 400 nM | O[C@H]1CC[C@H](COc2nc(Nc3cnn(C(F)(F)F)c3)ncc2F)CC1 [Example 222, (1R,4R)-4-(((5-fluoro-2-((1-(trifluoromethyl)-1H-pyrazol-4-yl)amino)pyrimidin-4-yl)oxy)methyl)cyclohexan-1-ol]
50 to 200 nM | O[C@H]1CC[C@H](COc2nc(Nc3cnn(CC(F)(F)F)c3)ncc2F)CC1 [Example 223, (1R,4R)-4-(((5-fluoro-2-((1-(2,2,2-trifluoroethyl)-1H-pyrazol-4-yl)amino)pyrimidin-4-yl)oxy)methyl)cyclohexan-1-ol]
< 50 nM | O[C@H]1CC[C@H](COc2nc(Nc3cnn(CCF)c3)ncc2F)CC1 [Example 224, (1R,4R)-4-(((5-fluoro-2-((1-(2-fluoroethyl)-1H-pyrazol-4-yl)amino)pyrimidin-4-yl)oxy)methyl)cyclohexan-1-ol]
< 50 nM | OCCn1cc(Nc2ncc(F)c(OC[C@H]3CC[C@H](O)CC3)n2)cn1 [Example 225, (1R,4R)-4-(((5-fluoro-2-((1-(2-hydroxyethyl)-1H-pyrazol-4-yl)amino)pyrimidin-4-yl)oxy)methyl)cyclohexan-1-ol]
50 to 200 nM | COCCn1cc(Nc2ncc(F)c(OC[C@H]3CC[C@H](O)CC3)n2)cn1 [Example 226, (1R,4R)-4-(((5-fluoro-2-((1-(2-methoxyethyl)-1H-pyrazol-4-yl)amino)pyrimidin-4-yl)oxy)methyl)cyclohexan-1-ol]
200 to 400 nM | O[C@H]1CC[C@H](COc2nc(Nc3cnn(C4COC4)c3)ncc2F)CC1 [Example 227, (1R,4R)-4-(((5-fluoro-2-((1-(oxetan-3-yl)-1H-pyrazol-4-yl)amino)pyrimidin-4-yl)oxy)methyl)cyclohexan-1-ol]
200 to 400 nM | O[C@H]1CC[C@H](COc2nc(Nc3cnn(C4CCOCC4)c3)ncc2F)CC1 [Example 228, (1R,4R)-4-(((5-fluoro-2-((1-(tetrahydro-2H-pyran-4-yl)-1H-pyrazol-4-yl)amino)pyrimidin-4-yl)oxy)methyl)cyclohexan-1-ol]
50 to 200 nM | Cc1nn(C)cc1Nc1ncc(F)c(OC[C@H]2CC[C@H](O)CC2)n1 [Example 229, (1R,4R)-4-(((2-((1,3-dimethyl-1H-pyrazol-4-yl)amino)-5-fluoropyrimidin-4-yl)oxy)methyl)cyclohexan-1-ol]

Compound | IC50
O=C(N[C@H]1CC[C@H](COc2nc(Nc3ccc(N4C5CCC4COC5)cc3)ncc2F)CC1)C(F)(F)F [Example 209, N-((1R,4R)-4-(((2-((4-(3-oxa-8-aza-bicyclo[3.2.1]octan-8-yl)phenyl)amino)-5-fluoro-pyrimidin-4-yl)oxy)methyl)cyclohexyl)-2,2,2-trifluoro-acetamide] | < 50 nM
